According to patent US20090082406A1, “Cancer Therapy” (National Health Research Institutes, priority 2004, published 2009):

Legend:
[1] = test system: DBTRG 05MG cells (human glioblastoma cells); experiment: sulforhodamine assay of cell numbers, DBTRG 05MG cells; format: cell-based; conditions: 6 days
Experimental: DBTRG 05MG cells (human glioblastoma cells) were treated for 6 days with 0.5 μM of lovastatin (Clabiochem) alone and 10 μM of troglitazone (Clabiochem) alone. Cell numbers were then measured by the sulforhodamine assay (see, e.g., Rubinstein, L. V. et al., J. Natl. Cancer Institute, 1990, 82: 113).
The same cells were also treated with combinations of lovastatin and troglitazone at various ratios. The combination index values were calculated.
DBTRG 05MG cells were treated for 6 days with lovastatin (0.5 μM), troglitazone (10 μM), and mevalonolacetone (100 μM), the downstream product of […]. Cell numbers were measured by the sulforhodamine assay (see, e.g., Rubinstein, L. V. et al., J. Natl. Cancer Institute, 1990, 82: 113).

[2] = test system: E2F-1; experiment: Western blotting assay of E2F-1 in DBTRG 05MG cells; format: cell-based, human; conditions: 3 days, lovastatin (1 μM) alone
Experimental: (§1) Cell cycle-regulating proteins, cyclin-dependent kinase 2 (CDK-2), cyclin A, Rb protein, and p27^kip1 were tested to determine the effect of lovastain and troglitazone on regulating the cell cycle. Note that p27^kip1 is a universal CDK inhibitor and can modulate the drug resistance of cancer cells (Lloyd, R. V., Am. J. Pathol. 1999, 154: 313-323). Rb binds to many proteins, including several important gene regulatory proteins. Its binding capacity depends on its state of phosphoration. When Rb is dephosphorated, it binds to a set of regulatory proteins (e.g., E2F-1) that favor cell proliferation; and when phosphorated, it releases these proteins, thereby allowing them to act. […] The concentrations of cyclin-dependent kinase 2 (CDK-2), cyclin A, p27^kip1, Rb protein, and E2F-1 were determined by the Western blotting assay. Briefly, whole cell lysates were prepared with a radioimmunoprecipitation buffer supplemented with protease inhibitors (Sigma). The lysates were subjected to a sodium dodecylsulfate-polyacrylamide gel electrophoresis and transferred to polyvinylidene difluoride membranes (Bio-Rad) by electroblotting. After having been blocked for 1 hour at room temperature, the membranes were probed with a primary antibody overnight at 4° C. and then with a horseradish peroxidase-conjugated secondary antibody for 1 hour. […]

[3] = test system: Rb protein; experiment: Western blotting assay of Rb and phosphor-Rb (Ser807/811) in DBTRG 05MG cells; format: cell-based, human; conditions: 3 days, lovastatin (1 μM) alone
Experimental: as §1

[4] = test system: cyclin A; experiment: Western blotting assay of cyclin A in DBTRG 05MG cells; format: cell-based, human; conditions: 3 days, lovastatin (1 μM) alone
Experimental: as §1

[5] = test system: p27^kip1; experiment: Western blotting assay of p27^kip1 in DBTRG 05MG cells; format: cell-based, human; conditions: 3 days, lovastatin (1 μM) alone
Experimental: as §1

[6] = test system: cyclin-dependent kinase 2 (CDK-2); experiment: Western blotting assay of CDK-2 in DBTRG 05MG cells; format: cell-based, human; conditions: 3 days, lovastatin (1 μM) alone
Experimental: as §1

## Cc1c(C)c2c(c(C)c1O)CCC(C)(COc1ccc(CC3SC(=O)NC3=O)cc1)O2 (centres unmarked) [troglitazone]
[1]; 10 μM of troglitazone alone
  cell number decrease: 11%

## CC[C@H](C)C(=O)O[C@H]1C[C@@H](C)C=C2C=C[C@H](C)[C@H](CC[C@@H]3C[C@@H](O)CC(=O)O3)[C@H]21 [lovastatin]
[2]
  level of E2F-1: little or no change
[1]; 0.5 μM of lovastatin alone
  cell number decrease: 9.7%
[3]
  level of Rb: little or no change
[4]
  level of cyclin A: little or no change
[5]
  level of p27^kip1: little or no change
[6]
  level of CDK-2: little or no change

## C[C@@]1(O)CCOC(=O)C1 [mevalonolacetone]
[1]; lovastatin (0.5 μM), troglitazone (10 μM), mevalonolacetone (100 μM)
  effect of added mevalonolacetone on the synergistic effect of lovastatin and troglitazone on cell numbers: significantly attenuated
